The target in assay [1] is T1, human Siglec-2/CD22 protein (Homo sapiens, UniProt P20273).
T1 construct: purchased Acro Biosystems SI2-H82E3
T1 sequence (P20273 20-847): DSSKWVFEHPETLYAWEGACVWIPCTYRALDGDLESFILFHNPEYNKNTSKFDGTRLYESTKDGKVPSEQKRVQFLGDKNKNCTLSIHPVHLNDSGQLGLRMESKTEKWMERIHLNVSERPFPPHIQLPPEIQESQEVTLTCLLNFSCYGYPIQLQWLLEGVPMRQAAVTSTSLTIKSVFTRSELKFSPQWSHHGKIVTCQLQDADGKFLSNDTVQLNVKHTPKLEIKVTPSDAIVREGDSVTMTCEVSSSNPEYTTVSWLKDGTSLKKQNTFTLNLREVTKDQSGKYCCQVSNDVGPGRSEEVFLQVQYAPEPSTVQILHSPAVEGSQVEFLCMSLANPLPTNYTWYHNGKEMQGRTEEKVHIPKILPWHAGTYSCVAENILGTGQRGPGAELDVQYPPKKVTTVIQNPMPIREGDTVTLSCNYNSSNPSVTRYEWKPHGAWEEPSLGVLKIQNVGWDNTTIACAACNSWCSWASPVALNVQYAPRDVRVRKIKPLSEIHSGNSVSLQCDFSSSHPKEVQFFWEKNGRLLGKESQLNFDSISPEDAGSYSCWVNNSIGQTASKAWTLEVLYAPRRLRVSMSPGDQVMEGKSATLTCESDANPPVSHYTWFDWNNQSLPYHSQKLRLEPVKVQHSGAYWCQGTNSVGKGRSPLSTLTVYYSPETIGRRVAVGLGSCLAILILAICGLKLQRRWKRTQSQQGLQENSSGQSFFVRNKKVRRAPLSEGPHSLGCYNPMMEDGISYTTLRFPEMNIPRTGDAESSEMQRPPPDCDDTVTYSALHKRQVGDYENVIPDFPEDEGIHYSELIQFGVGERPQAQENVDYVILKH
Put plainly: SPR binding affinity to human CD22. To be noted: steady-state analysis. A digest of the protocol: (§1)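 Native sialic acid residues are removed from the receptor enzymatically (4 hours at 37° C.) prior to streptavidin capture of the biotinylated protein. Ligand compounds then flow over in HEPES-buffered saline, pH 7.5, containing 0.05% Tween-20 and 1% DMSO, and binding is evaluated at steady state.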
(In SPR one partner is held on a chip, and binding of the other changes the refractive index at the surface.)

In assay [2] the target is T2, mouse Siglec-2-Fc-Avi (CD22) (Mus musculus, UniProt P35329).
T2 construct: made in house
T2 sequence (P35329 22-708 limits assumed): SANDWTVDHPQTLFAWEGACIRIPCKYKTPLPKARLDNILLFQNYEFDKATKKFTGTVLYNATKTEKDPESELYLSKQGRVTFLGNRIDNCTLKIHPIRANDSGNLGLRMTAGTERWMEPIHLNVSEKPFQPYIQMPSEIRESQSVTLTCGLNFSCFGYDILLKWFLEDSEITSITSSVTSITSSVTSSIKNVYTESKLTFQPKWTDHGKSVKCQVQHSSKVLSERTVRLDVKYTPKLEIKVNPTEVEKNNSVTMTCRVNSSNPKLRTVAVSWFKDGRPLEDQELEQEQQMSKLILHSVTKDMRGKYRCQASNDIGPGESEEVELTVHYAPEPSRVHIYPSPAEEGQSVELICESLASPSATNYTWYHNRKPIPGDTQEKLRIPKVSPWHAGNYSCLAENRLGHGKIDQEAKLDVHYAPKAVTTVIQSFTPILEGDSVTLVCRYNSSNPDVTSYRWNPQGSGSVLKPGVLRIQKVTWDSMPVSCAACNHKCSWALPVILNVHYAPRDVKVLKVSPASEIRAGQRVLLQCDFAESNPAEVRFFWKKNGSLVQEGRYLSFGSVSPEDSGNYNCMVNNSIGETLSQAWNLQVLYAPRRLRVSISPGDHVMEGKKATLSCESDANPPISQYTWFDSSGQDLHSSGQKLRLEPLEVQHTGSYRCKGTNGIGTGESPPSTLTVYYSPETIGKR
Kind of assay: SPR binding affinity to mouse CD22. The note with it: steady-state analysis. In outline: as §1

Another assay has as its target cynomolgus Siglec-2/CD22 (Macaca fascicularis, UniProt A0A2K5WCZ6). Kind of assay: biochemical. The format is binding. The note with it: SPR, steady-state analysis; read-out: Affinity cyno CD22. A digest of the protocol:
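Compound binding measured by steady-state SPR analysis, 120 s dissociation, in HEPES-NaCl-Tween buffer pH 7.5 containing 1% DMSO, DMSO solvent-corrected. Surface: cyno CD22, sialic acids first stripped by SialoExo for 4 h at 37° C., then amine-coupled onto CM5.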

Our source for the Kd values is US20250064941A1, “SIGLEC LIGANDS, CONJUGATES, AND METHODS OF USE THEREOF” (Osprey Biopharmaceuticals, Inc., priority 2023, published 2025).

Chain of cynomolgus Siglec-2/CD22 (A0A2K5WCZ6 entry or part of it): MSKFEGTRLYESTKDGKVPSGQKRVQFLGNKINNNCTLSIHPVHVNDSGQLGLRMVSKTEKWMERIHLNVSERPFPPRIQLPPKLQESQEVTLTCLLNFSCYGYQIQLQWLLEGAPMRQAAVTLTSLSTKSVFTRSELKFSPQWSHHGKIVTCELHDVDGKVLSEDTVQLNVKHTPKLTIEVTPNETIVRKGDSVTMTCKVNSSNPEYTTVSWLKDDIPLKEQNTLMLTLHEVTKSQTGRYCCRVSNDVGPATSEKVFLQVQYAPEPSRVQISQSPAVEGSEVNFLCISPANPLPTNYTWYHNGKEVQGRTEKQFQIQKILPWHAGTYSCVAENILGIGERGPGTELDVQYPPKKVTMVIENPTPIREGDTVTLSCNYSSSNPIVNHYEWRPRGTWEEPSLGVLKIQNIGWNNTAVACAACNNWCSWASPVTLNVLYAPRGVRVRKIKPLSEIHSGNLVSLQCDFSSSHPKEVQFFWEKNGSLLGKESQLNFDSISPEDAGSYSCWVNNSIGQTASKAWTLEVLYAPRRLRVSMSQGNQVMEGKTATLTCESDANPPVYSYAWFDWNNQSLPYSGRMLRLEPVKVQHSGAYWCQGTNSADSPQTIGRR

`O=C(Cc1ccc(Cl)cc1)NC[C@@H](O)[C@@H](O)[C@@H]1O[C@@](OCC2CCOCC2)(C(=O)O)C[C@H](O)[C@H]1NC(=O)CO` [Compound 106, (2R,4S,5R,6R)-6-((1R,2R)-3-(2-(4-chlorophenyl)acetamido)-1,2-dihydroxypropyl)-4-hydroxy-5-(2-hydroxyacetamido)-2-((tetrahydro-2H-pyran-4-yl)methoxy)tetrahydro-2H-pyran-2-carboxylic acid]: the Kd in assay [1] was below 1000 nM; in assay [2], 1000 to 10000 nM; at cynomolgus Siglec-2/CD22, below 1000 nM.

As for `O=C(Cc1ccc(Cl)cc1)NC[C@@H](O)[C@@H](O)[C@@H]1O[C@@](OCCCCCCNC(=O)c2ccccc2)(C(=O)O)C[C@H](O)[C@H]1NC(=O)CO` [Compound 108, (2R,4S,5R,6R)-2-((6-benzamidohexyl)oxy)-6-((1R,2R)-3-(2-(4-chlorophenyl)acetamido)-1,2-dihydroxypropyl)-4-hydroxy-5-(2-hydroxyacetamido)tetrahydro-2H-pyran-2-carboxylic acid], the Kd (in assay [1]; in assay [2]; at cynomolgus Siglec-2/CD22) was below 1000 nM in each case.

As for `C#CCCCCCCCCO[C@]1(C(=O)O)C[C@H](O)[C@@H](NC(=O)CO)[C@H]([C@H](O)[C@H](O)CNC(=O)Cc2ccc(Cl)cc2)O1` [Compound 109, (2R,4S,5R,6R)-6-((1R,2R)-3-(2-(4-chlorophenyl)acetamido)-1,2-dihydroxypropyl)-2-(dec-9-yn-1-yloxy)-4-hydroxy-5-(2-hydroxyacetamido)tetrahydro-2H-pyran-2-carboxylic acid], the Kd (in assay [1]; in assay [2]; at cynomolgus Siglec-2/CD22) was below 1000 nM in each case.

As to `C#CCCCCCCO[C@]1(C(=O)O)C[C@H](O)[C@@H](NC(=O)CO)[C@H]([C@H](O)[C@H](O)CNC(=O)Cc2ccc(Cl)cc2)O1` [Compound 110, (2R,4S,5R,6R)-6-((1R,2R)-3-(2-(4-chlorophenyl)acetamido)-1,2-dihydroxypropyl)-4-hydroxy-5-(2-hydroxyacetamido)-2-(oct-7-yn-1-yloxy)tetrahydro-2H-pyran-2-carboxylic acid], the Kd (in assay [1]; in assay [2]; on cynomolgus Siglec-2/CD22) was below 1000 nM throughout.

For the molecule `C#CCOCCOCCOCCOCCC(=O)NCCOCCOCCO[C@]1(C(=O)O)C[C@H](O)[C@@H](NC(=O)CO)[C@H]([C@H](O)[C@H](O)CNC(=O)Cc2ccc(Cl)cc2)O1` [Compound 111, (2R,4S,5R,6R)-6-((1R,2R)-3-(2-(4-chlorophenyl)acetamido)-1,2-dihydroxypropyl)-4-hydroxy-5-(2-hydroxyacetamido)-2-((10-oxo-3,6,13,16,19,22-hexaoxa-9-azapentacos-24-yn-1-yl)oxy)tetrahydro-2H-pyran-2-carboxylic acid], the Kd in assay [1] was 1000 to 10000 nM; in assay [2], 1000 to 10000 nM; at cynomolgus Siglec-2/CD22, below 1000 nM.

On to `C#CCNc1c(NCCCCCCO[C@]2(C(=O)O)C[C@H](O)[C@@H](NC(=O)CO)[C@H]([C@H](O)[C@H](O)CNC(=O)Cc3ccc(Cl)cc3)O2)c(=O)c1=O` [Compound 112, (2R,4S,5R,6R)-6-((1R,2R)-3-(2-(4-chlorophenyl)acetamido)-1,2-dihydroxypropyl)-2-((6-((3,4-dioxo-2-(prop-2-yn-1-ylamino)cyclobut-1-en-1-yl)amino)hexyl)oxy)-4-hydroxy-5-(2-hydroxyacetamido)tetrahydro-2H-pyran-2-carboxylic acid], for which the Kd (in assay [1]; in assay [2]; at cynomolgus Siglec-2/CD22) was below 1000 nM in each case.

For the molecule `C#CCOCCCCCCO[C@]1(C(=O)O)C[C@H](O)[C@@H](NC(=O)CO)[C@H]([C@H](O)[C@H](O)CNC(=O)Cc2ccc(Cl)cc2)O1` [Compound 113, (2R,4S,5R,6R)-6-((1R,2R)-3-(2-(4-chlorophenyl)acetamido)-1,2-dihydroxypropyl)-4-hydroxy-5-(2-hydroxyacetamido)-2-((6-(prop-2-yn-1-yloxy)hexyl)oxy)tetrahydro-2H-pyran-2-carboxylic acid], the Kd is below 1000 nM in assay [1], 1000 to 10000 nM in assay [2] and below 1000 nM on cynomolgus Siglec-2/CD22.

Turning to `C#Cc1ccc(CO[C@]2(C(=O)O)C[C@H](O)[C@@H](NC(=O)CO)[C@H]([C@H](O)[C@H](O)CNC(=O)Cc3ccc(Cl)cc3)O2)cc1` [Compound 114, (2R,4S,5R,6R)-6-((1R,2R)-3-(2-(4-chlorophenyl)acetamido)-1,2-dihydroxypropyl)-2-((4-ethynylbenzyl)oxy)-4-hydroxy-5-(2-hydroxyacetamido)tetrahydro-2H-pyran-2-carboxylic acid], the Kd (in assay [1]; in assay [2]; on cynomolgus Siglec-2/CD22) was below 1000 nM in each case.

`O=C(Cc1ccc(Cl)cc1)NC[C@@H](O)[C@@H](O)[C@@H]1O[C@@](SCc2cccc(C(=O)O)c2)(C(=O)O)C[C@H](O)[C@H]1NC(=O)CO` [Compound 116, (2S,4S,5R,6R)-2-((3-carboxybenzyl)thio)-6-((1R,2R)-3-(2-(4-chlorophenyl)acetamido)-1,2-dihydroxypropyl)-4-hydroxy-5-(2-hydroxyacetamido)tetrahydro-2H-pyran-2-carboxylic acid]: the results for the Kd (in assay [1]; in assay [2]; at cynomolgus Siglec-2/CD22) were below 1000 nM, 1000 to 10000 nM and below 1000 nM, respectively.

For `O=C(O)CCCO[C@]1(C(=O)O)C[C@H](O)[C@@H](NC(=O)CO)[C@H]([C@H](O)[C@H](O)CNC(=O)Cc2ccc(Cl)cc2)O1` [Compound 118, (2R,4S,5R,6R)-2-(3-carboxypropoxy)-6-((1R,2R)-3-(2-(4-chlorophenyl)acetamido)-1,2-dihydroxypropyl)-4-hydroxy-5-(2-hydroxyacetamido)tetrahydro-2H-pyran-2-carboxylic acid], the results for the Kd (in assay [1]; in assay [2]; at cynomolgus Siglec-2/CD22) were 1000 to 10000 nM, above 10000 nM and 1000 to 10000 nM, respectively.

On to `C#CCCCCCCc1cn([C@]2(C(=O)O)C[C@H](O)[C@@H](NC(=O)CO)[C@H]([C@H](O)[C@H](O)CNC(=O)Cc3ccc(Cl)cc3)O2)nn1` [Compound 119, (2R,4S,5R,6R)-6-((1R,2R)-3-(2-(4-chlorophenyl)acetamido)-1,2-dihydroxypropyl)-4-hydroxy-5-(2-hydroxyacetamido)-2-(4-(oct-7-yn-1-yl)-1H-1,2,3-triazol-1-yl)tetrahydro-2H-pyran-2-carboxylic acid], for which the Kd (in assay [1]; in assay [2]; on cynomolgus Siglec-2/CD22) was 1000 to 10000 nM each time.

With `C#CCCOc1ccc(CS[C@]2(C(=O)O)C[C@H](O)[C@@H](NC(=O)CO)[C@H]([C@H](O)[C@H](O)CNC(=O)Cc3cccc(Cl)c3)O2)cc1` [Compound 120, (2S,4S,5R,6R)-2-((4-(but-3-yn-1-yloxy)benzyl)thio)-6-((1R,2R)-3-(2-(3-chlorophenyl)acetamido)-1,2-dihydroxypropyl)-4-hydroxy-5-(2-hydroxyacetamido)tetrahydro-2H-pyran-2-carboxylic acid], the Kd in assay [1] is below 1000 nM; in assay [2], 1000 to 10000 nM; at cynomolgus Siglec-2/CD22, below 1000 nM.
